Data reported in article PMC10862539, “Chelation of Mitochondrial Iron as an Antiparasitic Strategy” (ACS Infectious Diseases, 2024).
Like-named read-outs stand apart in the source and are kept apart here.

Legend:
T. brucei STIB (BSF) = assay: Drug sensitivity assay, T. brucei STIB bloodstream form (resazurine); format: cell-based, Trypanosoma brucei; conditions: for selectivity (for −Fe): EC50 human fibroblasts / EC50 T. brucei STIB (BSF); for EC50: Trypanosoma brucei, 72 h
Description: (§1) All organisms were cultivated according to the conditions summarized in Table S2, which also includes strain specifications. Dose–response curves were obtained by their cultivation on 96 well plates in a 2-fold series dilution of the appropriate drug, in a total volume of 200 μL (with the exception of P. falciparum, where the total volume was 100 μL). Iron supplementation was achieved by mixing the compound with Fe-NTA in an equimolar ratio prior to setting up the experiment. Results were plotted and processed using Prism 8.0 (GraphPad Software). A two-tailed unpaired t-test was performed to assess the significance of the difference between mitoDFO with and without added iron. Selectivity was calculated as the ratio of the average EC50 value for human fibroblasts to the average EC50 value for the appropriate pathogen. All data were obtained from a minimum of three independent biological replicates.

T. gambiense (BSF) = assay: Drug sensitivity assay, T. gambiense bloodstream form (resazurine); format: cell-based, Trypanosoma gambiense; conditions: for selectivity (for −Fe): EC50 human fibroblasts / EC50 T. gambiense (BSF); for EC50: Trypanosoma brucei, 72 h
Description: as §1

L. mexicana (amastigote) = assay: Drug sensitivity assay, axenic L. mexicana amastigote (flow cytometry); format: cell-based, Leishmania mexicana; conditions: for EC50: Leishmania mexicana
Description: as §1

L. major (promastigote) = assay: Drug sensitivity assay, L. major promastigote (flow cytometry); format: cell-based; conditions: for EC50: Leishmania major, 120 h
Description: as §1

P. falciparum = assay: Drug sensitivity assay, P. falciparum (SYBR green I); format: cell-based, Plasmodium falciparum; conditions: for selectivity (for −Fe): EC50 human fibroblasts / EC50 P. falciparum; for EC50: Plasmodium falciparum
Description: as §1

C. albicans = assay: Drug sensitivity assay, C. albicans (OD600); format: cell-based, Candida albicans; conditions: for EC50: Candida albicans, 48 h
Description: as §1

N. fowleri = assay: Drug sensitivity assay, N. fowleri (flow cytometry); format: cell-based; conditions: for selectivity (for −Fe): EC50 human fibroblasts / EC50 N. fowleri; for EC50: Naegleria fowleri, 72 h
Description: as §1

T. brucei BSF cells = assay: Sytox Green assay, percentage of live cells; format: cell-based, Trypanosoma brucei
Description: Sytox Green Assay to determine the percentage of live treated and untreated cells at selected time points. T. brucei BSF cells were seeded at a concentration of 2 × 10^5 cells/mL in 5 mL HMI-9 medium in aerobic cultivation flasks. Cells were treated with compounds at final concentration of 0,05 µM, 0,1 µM, 0,25 µM mitoDFO and 10 µM, 100 µM DFO. In addition, there was a group of untreated cells. At defined time points (24, 36, 48, and 72 h), 20 µL samples were collected from each flask. These samples were then diluted tenfold in fresh HMI-9 medium, reaching a final volume of 200 µL, with the addition of 2 µL SYTOX Green Dead Cell Stain (Invitrogen). Following a 30-minute incubation under standard growth conditions, the cells were analyzed using a Guava EasyCyte 8HT flow cyometer (Luminex flow) with detection at 504/523 nm. This entire procedure was conducted in biological triplicates.
Compound Concentration % of live cells

iron-containing fumarase = assay: Fumarase activity in cytosolic and mitochondrial fractions of treated T. brucei 427; format: cell-based, Trypanosoma brucei; conditions: 0.12 μM compound, 24 h; for reduction of cytosolic fumarase activity: cytosolic fraction; for reduction of mitochondrial fumarase activity: mitochondrial fraction
Description: T. brucei 427 bloodstream forms were preincubated for 24 h in appropriate conditions (0.12 μM mitoDFO, 0.12 μM DFO, and no addition) and harvested, and cytosolic and mitochondrial fractions were separated by digitonin fractionation as described previously.[46] Briefly, cells were spun down (1200 g, 15 min, 4 °C) and resuspended in SHE buffer (250 mM sucrose, 25 mM HEPES, 1 mM EDTA, pH 7.4), and protein concentration was measured using a BCA kit (Sigma-Aldrich). Subsequently, cells were transferred into HBSS (Sigma-Aldrich) and digitonin (Calbiochem) was added in the protein/digitonin ratio of 1/0.15 for 4 min and spun (21 000 g, 2 min, 4 °C). The supernatant was collected and placed on ice as a cytosolic fraction. The remaining pellet was lysed using 0.1% Triton X-100 in HBSS for 5 min, resuspended, washed in HBSS twice, and used as a mitochondrial fraction. The activities of cytosolic pyruvate kinase and mitochondrial threonine dehydrogenase were assessed in all conditions using the spectrophotometric assay at […], as described in ref ([46]), and served both as markers of successful fraction preparation and to assess the effect of the studied compounds. Briefly, pyruvate kinase was measured in TEA buffer (0.1 M triethanolamine, 5 mM MgSO4, 50 mM KCl, pH 7.6) with added 2.8 mM phosphoenolpyruvate, 2 mM ADP, 0.3 mM NADH, and lactate dehydrogenase. Threonine dehydrogenase was measured in 0.2 M Tris–HCl buffer, pH 8.6, 0.25 KCl with 120 mM threonine, and 2.5 mM NAD^+. Fumarase was measured at […] in 2 mM Tris–HCl buffer, pH 7.5, with 20 mM malate.

murine macrophage = assay: Intracellular L. mexicana infection assay, macrophage population; format: cell-based, mouse; conditions: Mus musculus, Macrophage, read-out: EC50 infection assay murine macrophage
Description: (§2) Approximately 10 000 murine macrophages per well were seeded on 96 well plate, and a suspension of 60 000 L. mexicana GFP-expressing promastigotes was added to each well and left to infect the mammal cells for 72 h in a cultivation medium under the conditions described in Table S2. 2-fold dilution series starting with 100 μM of either mitoDFO, DFO, or Amphotericin B in a regular growth medium were added, and cultures were incubated for further 72 h in the same conditions. Macrophage cells were washed and resuspended in growth medium and detached by pipetting, and their concentration in each well was measured on a Guava EasyCyte 8HT flow cytometer (Luminex). The GFP signal of internalized L. mexicana amastigotes in each macrophage was detected using a 488 nm excitation laser and a 525/30 nm detector. Median fluorescence graphs were plotted, and EC50 values for both macrophages and intracellular L. mexicana were calculated using Prism 8.0 (GraphPad Software).

[1] = test system: intracellular Leishmania mexicana amastigotes; assay: Intracellular L. mexicana infection assay, GFP amastigotes in macrophages; format: cell-based; conditions: for EC50: Leishmania mexicana, Macrophage, read-out: EC50 infection assay Leishmania mexicana
Description: as §2

[2] = axenic monoculture, read-out: EC50 axenic Leishmania mexicana
[3] = iron-free compound, L. mexicana (amastigote), 120 h, read-out: EC50 –Fe
[4] = pre-treated with equimolar iron, L. mexicana (amastigote), 120 h, read-out: EC50 +Fe

CC(=O)N(O)CCCCCNC(=O)CCC(=O)N(O)CCCCCNC(=O)CCC(=O)N(O)CCCCCN(CCCCCCCCCC[P+](c1ccccc1)(c1ccccc1)c1ccccc1)CCCCCCCCCC[P+](c1ccccc1)(c1ccccc1)c1ccccc1 [mitoDFO]
selectivity (for −Fe) (T. brucei STIB (BSF)): 28 | DFO/mitoDFO ratio (−Fe) (T. brucei STIB (BSF); T. brucei STIB (BSF)): 8.1 | EC50 (T. brucei STIB (BSF); read-out: EC50 –Fe): 0.32 ± 0.067 µM | selectivity (for −Fe) (T. gambiense (BSF)): 49 | DFO/mitoDFO ratio (−Fe) (T. gambiense (BSF); T. gambiense (BSF)): 13.7 | mitoDFO EC50 ratio + Fe/–Fe (T. gambiense (BSF); T. gambiense (BSF)): 1.2 | EC50 (T. gambiense (BSF); GAMBIENSE, read-out: EC50 –Fe): 0.181 ± 0.043 µM | selectivity (for −Fe) (L. mexicana (amastigote); EC50 human fibroblasts / EC50 L. mexicana (amastigote)): 6 | DFO/mitoDFO ratio (−Fe) (L. mexicana (amastigote); L. mexicana (amastigote)): >15.6 | mitoDFO EC50 ratio + Fe/–Fe (L. mexicana (amastigote); L. mexicana (amastigote)): 1.5 | EC50 (L. mexicana (amastigote); [2]): 1.56 ± 0.5 µM | EC50 (L. mexicana (amastigote); [3]): 1.6 ± 0.5 µM | EC50 (L. mexicana (amastigote); [4]): 2.4 ± 0.5 µM | selectivity (for −Fe) (L. major (promastigote); EC50 human fibroblasts / EC50 L. major (promastigote)): 5 | DFO/mitoDFO ratio (−Fe) (L. major (promastigote); L. major (promastigote)): >13.2 | mitoDFO EC50 ratio + Fe/–Fe (L. major (promastigote); L. major (promastigote)): 4.8 | EC50 (L. major (promastigote); read-out: EC50 –Fe): 1.9 ± 0.6 µM | selectivity (for −Fe) (P. falciparum): 27 | DFO/mitoDFO ratio (−Fe) (P. falciparum; P. falciparum): 38.0 | mitoDFO EC50 ratio + Fe/–Fe (P. falciparum; P. falciparum): 1.4 | EC50 (P. falciparum): 0.334 ± 0.01 µM | EC50 (P. falciparum; 48 h, read-out: EC50 –Fe): 0.33 ± 0.01 µM | DFO/mitoDFO ratio (−Fe) (C. albicans; C. albicans): >27.8 | mitoDFO EC50 ratio + Fe/–Fe (C. albicans; C. albicans): 2.6 | EC50 (C. albicans; read-out: EC50 –Fe): 3.6 ± 1.7 µM | selectivity (for −Fe) (C. albicans; EC50 human fibroblasts / EC50 C. albicans): 2 | selectivity (for −Fe) (N. fowleri): 1 | DFO/mitoDFO ratio (−Fe) (N. fowleri; N. fowleri): 2.9 | mitoDFO EC50 ratio + Fe/–Fe (N. fowleri; N. fowleri): 3.0 | EC50 (N. fowleri; read-out: EC50 –Fe): 6.7 ± 0.7 µM | % of live cells (T. brucei BSF cells; 0,1 µM mitoDFO, 24h): 99,1% | % of live cells (T. brucei BSF cells; 0,1 µM mitoDFO, 36h): 97,9% | % of live cells (T. brucei BSF cells; 0,1 µM mitoDFO, 48h): 66,2% | % of live cells (T. brucei BSF cells; 0,1 µM mitoDFO, 72h): 53,8% | % of live cells (T. brucei BSF cells; 0,05 µM mitoDFO, 24h): 98,6% | % of live cells (T. brucei BSF cells; 0,05 µM mitoDFO, 36h): 96,1% | % of live cells (T. brucei BSF cells; 0,05 µM mitoDFO, 48h): 62,1% | % of live cells (T. brucei BSF cells; 0,05 µM mitoDFO, 72h): 52,8% | % of live cells (T. brucei BSF cells; 0,25 µM mitoDFO, 24h): 94,4% | % of live cells (T. brucei BSF cells; 0,25 µM mitoDFO, 36h): 82,5% | % of live cells (T. brucei BSF cells; 0,25 µM mitoDFO, 48h): 70,2% | % of live cells (T. brucei BSF cells; 0,25 µM mitoDFO, 72h): 64,3% | cells alive (T. brucei BSF cells; 24 h incubation with up to 0.25 μM): more than 90% | living cells (T. brucei BSF cells; twice the EC50 concentration, 36 h): more than 95% | reduction of cytosolic fumarase activity (iron-containing fumarase): approximately 3 fold | reduction of mitochondrial fumarase activity (iron-containing fumarase): approximately 3 fold | EC50 (murine macrophage; 72 h): 4.67 ± 1.18 µM | decrease in EC50 concentration, intracellular amastigotes versus axenic parasites [1]: 2 fold | EC50 ([1]; 72 h): 0.67 ± 0.24 µM

CC(=O)N(O)CCCCCNC(=O)CCC(=O)N(O)CCCCCNC(=O)CCC(=O)N(O)CCCCCN [DFO, Deferoxamine, reference compound]
selectivity (for −Fe) (T. brucei STIB (BSF)): >38 | EC50 (T. brucei STIB (BSF); iron-free compound, T. brucei STIB (BSF), read-out: EC50 –Fe): 2.61 ± 0.753 µM | EC50 (T. brucei STIB (BSF); pre-treated with equimolar iron, T. brucei STIB (BSF), read-out: EC50 +Fe): 14.5 ± 1.18 µM | selectivity (for −Fe) (T. gambiense (BSF)): >40 | EC50 (T. gambiense (BSF); iron-free compound, T. gambiense (BSF), read-out: EC50 –Fe): 2.47 ± 1.16 µM | EC50 (T. gambiense (BSF); pre-treated with equimolar iron, T. gambiense (BSF), read-out: EC50 +Fe): > 25 µM | EC50 (L. mexicana (amastigote); [2]): > 25 µM | EC50 (L. mexicana (amastigote); [3]): > 25 µM | EC50 (L. mexicana (amastigote); [4]): > 25 µM | EC50 (L. major (promastigote); iron-free compound, L. major (promastigote), read-out: EC50 –Fe): > 25 µM | EC50 (L. major (promastigote); pre-treated with equimolar iron, L. major (promastigote), read-out: EC50 +Fe): > 25 µM | selectivity (for −Fe) (P. falciparum): >8 | EC50 (P. falciparum; iron-free compound, P. falciparum, 48 h, read-out: EC50 –Fe): 12.7 ± 0.6 µM | EC50 (P. falciparum; pre-treated with equimolar iron, P. falciparum, 48 h, read-out: EC50 +Fe): > 50 µM | EC50 (C. albicans; iron-free compound, C. albicans, read-out: EC50 –Fe): > 100 µM | EC50 (C. albicans; pre-treated with equimolar iron, C. albicans, read-out: EC50 +Fe): > 100 µM | selectivity (for −Fe) (N. fowleri): >5 | EC50 (N. fowleri; iron-free compound, N. fowleri, read-out: EC50 –Fe): 19.5 ± 5.9 µM | EC50 (N. fowleri; pre-treated with equimolar iron, N. fowleri, read-out: EC50 +Fe): > 100 µM | % of live cells (T. brucei BSF cells; 10 µM DFO, 24h): 99,1% | % of live cells (T. brucei BSF cells; 10 µM DFO, 36h): 97,5% | % of live cells (T. brucei BSF cells; 10 µM DFO, 48h): 74,3% | % of live cells (T. brucei BSF cells; 10 µM DFO, 72h): 58,6% | % of live cells (T. brucei BSF cells; 100 µM DFO, 24h): 95,5% | % of live cells (T. brucei BSF cells; 100 µM DFO, 36h): 78,2% | % of live cells (T. brucei BSF cells; 100 µM DFO, 48h): 62,1% | % of live cells (T. brucei BSF cells; 100 µM DFO, 72h): 54,8% | reduction of cytosolic fumarase activity (iron-containing fumarase): no significant effect | reduction of mitochondrial fumarase activity (iron-containing fumarase): no significant effect | EC50 (murine macrophage; infected macrophages, 72 h treatment): 45.3 ± 3.09 µM | EC50 ([1]; intracellular amastigotes, 72 h treatment): 47.1 ± 2.91 µM
